The values that follow come from article PMC3516885 (Chembiochem : a European journal of chemical biology, 2012).

Positions of bridges follow the written chain, without caps; N, C: chain ends. Residues, ends and D or L forms follow the SMILES beside them. A value given as a limit tells only on which side of the number the result lay.

A short description of data set [1]: Human serum stability assay. It is filed as in vitro ADME. The conditions noted are these: for peptide remaining after 24 hours in human serum (in words): 0.9 mg/mL, buffered human serum, 37 deg. C; for remaining at 7 h, 0.9 mg/mL: male, human, human type-AB serum diluted 9:1 in phosphate-buffered saline.
Data set [2] concerns the target Grb2-SH2 (Homo sapiens, UniProt P62993). It is filed as binding. The conditions noted are these: 5 nM pYVNV ligand, 0.91 μM Grb2-SH2.

Grb2-SH2, sequence (P62993 60-152 limits assumed): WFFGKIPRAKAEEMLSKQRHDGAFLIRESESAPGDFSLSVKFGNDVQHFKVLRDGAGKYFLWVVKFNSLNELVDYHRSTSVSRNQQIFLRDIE

As to `CSCC[C@@H]1NC(=O)CNC(=O)[C@H](C(C)C)NC(=O)[C@H](CC(N)=O)NC(=O)[C@H](CCC(=O)O)NC(=O)[C@H](Cc2ccc(O)cc2)NC(=O)[C@H](CC(C)C)NC(=O)[C@H](CCC(=O)O)NC(=O)[C@@H](N)CSSC[C@@H](C(N)=O)NC(=O)[C@H](Cc2ccc(O)cc2)NC1=O` [G1, reference compound] (H-CELYENVGMYC-NH2; disulfide 1-11; N-terminus and C-terminus assumed), in data set [1], the “peptide remaining after 24 hours in human serum (in words)” value is recorded as “no detectable amounts of peptide remaining” and the amount remaining at 7 h, 0.9 mg/mL is less than 30%.
As to `CSCC[C@@H]1NC(=O)CNC(=O)[C@H](C(C)C)NC(=O)[C@H](CC(N)=O)NC(=O)[C@@H]2CCCN2C(=O)[C@H](Cc2ccc(O)cc2)NC(=O)[C@H](CC(C)C)NC(=O)[C@H](CCC(=O)O)NC(=O)[C@@H](N)CSSC[C@@H](C(N)=O)NC(=O)[C@H](Cc2ccc(O)cc2)NC1=O` [G1-Pro] (H-CELYPNVGMYC-NH2; disulfide 1-11; N-terminus and C-terminus assumed), in data set [1], the “peptide remaining after 24 hours in human serum (in words)” value is listed as “no detectable amounts of peptide remaining” and the share remaining at 7 h, 0.9 mg/mL was less than 30%. The “inhibition of Grb2-SH2 in the competition assay (in words)” value in data set [2] is “little inhibitory activity”.

One may read the amount remaining as what is left of the initial amount, in per cent. Higher therefore signals greater stability.
